Experimental data as given in patent US20160297833A1, “THIENOPYRIMIDINES AS MKNK1 AND MKNK2 INHIBITORS” (BAYER PHARMA AKTIENGESELLSCHAFT, priority 2013, published 2016).

Molecular target: T1, human full-length MKNK1 (Homo sapiens, UniProt Q9BUB5, T385D)
T1 construct: GST (N); purchased Carna Biosciences 02-145; host or cells: insect cells (baculovirus expression system)
Assay: MKNK1 kinase high ATP assay (TR-FRET)
Type: biochemical
Conditions: for IC50: Table 1, MKNK1 kinase high ATP assay, 2 mM ATP, read-out: MKNK1 IC50; for Activity-Ratio MKNK1: Table 2, ratio of the IC50-value of an R-enantiomer and its corresponding S-enantiomer
Experimental: MKNK1 Kinase High ATP Assay
MKNK1-inhibitory activity at high ATP of compounds of the present invention after their preincubation with MKNK1 was quantified employing the TR-FRET-based MKNK1 high ATP assay as described in the following paragraphs.
As substrate for the kinase reaction the biotinylated peptide biotin-Ahx-[…] (C-terminus in amide form) was used, which can be purchased e.g. from the company Biosyntan (Berlin-Buch, Germany).
For the assay 50 nL of a 100 fold concentrated solution of the test compound in DMSO was pipetted into a black low volume 384 well microtiter plate (Greiner Bio-One, Frickenhausen, Germany), 2 μL of a solution of MKNK1 in aqueous assay buffer [50 mM HEPES pH 7.5, 5 mM MgCl2, 1.0 mM dithiothreitol, 0.005% (v/v) Nonidet-P40 (Sigma)] was added and the mixture was incubated for 15 min at 22° C. to allow pre-binding of the test compounds to the enzyme before the start of the kinase reaction. Then the kinase reaction was started by the addition of 3 μL of a solution of adenosine-tri-phosphate (ATP, 3.3 mM=>final conc. in the 5 μL assay volume is 2 mM) and substrate (0.1 μM=>final conc. in the 5 μL assay volume is 0.06 μM) in assay buffer and the resulting mixture was incubated for a reaction time of 30 min at 22° C. The concentration of MKNK1 was adjusted depending of the activity of the enzyme lot and was chosen appropriate to have the assay in the linear range, typical concentrations were in the range of 0.003 μg/mL. The reaction was stopped by the addition of 5 μL of a solution of TR-FRET detection reagents (5 nM streptavidine-XL665 [Cisbio Bioassays, Codolet, France] and 1 nM anti-ribosomal protein S6 (pSer236)-antibody from Invitrogen [#44921G] and 1 nM LANCE EU-W1024 labeled ProteinG [Perkin-Elmer, product no. AD0071]) in an aqueous EDTA-solution (100 mM EDTA, 0.1% (w/v) bovine serum albumin in 50 mM HEPES pH 7.5).
The resulting mixture was incubated for 1 h at 22° C. to allow the formation of complex between the phosphorylated biotinylated peptide and the detection reagents. Subsequently the amount of phosphorylated substrate was evaluated by measurement of the resonance energy transfer from the Eu-chelate to the streptavidine-XL. Therefore, the fluorescence emissions at 620 nm and 665 nm after excitation at 350 nm were measured in a TR-FRET reader, e.g. a Rubystar (BMG Labtechnologies, Offenburg, Germany) or a Viewlux (Perkin-Elmer). The ratio of the emissions at 665 nm and at 622 nm was taken as the measure for the amount of phosphorylated substrate.

T1 sequence (Q9BUB5 1-424 isoform Q9BUB5-2 T344D): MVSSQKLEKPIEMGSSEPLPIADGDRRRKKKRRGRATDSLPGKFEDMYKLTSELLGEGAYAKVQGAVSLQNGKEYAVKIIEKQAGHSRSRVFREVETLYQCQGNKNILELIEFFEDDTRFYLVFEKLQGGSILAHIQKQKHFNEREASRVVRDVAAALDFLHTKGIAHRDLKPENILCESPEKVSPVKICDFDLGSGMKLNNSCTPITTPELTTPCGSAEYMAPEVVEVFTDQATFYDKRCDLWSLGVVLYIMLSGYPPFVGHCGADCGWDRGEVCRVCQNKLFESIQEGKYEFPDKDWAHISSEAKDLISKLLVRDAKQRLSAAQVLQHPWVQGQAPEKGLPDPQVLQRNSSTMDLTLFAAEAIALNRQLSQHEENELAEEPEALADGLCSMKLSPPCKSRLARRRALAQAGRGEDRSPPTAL

SMILES: O=C([C@H]1CCc2c(sc3ncnc(Nc4ccc5[nH]ncc5c4)c23)C1)N1CC2(COC2)C1 [Example 12, [(7S)-4-(1H-Indazol-5-ylamino)-5,6,7,8-tetrahydro[1]benzothieno[2,3-d]pyrimidin-7-yl](2-oxa-6-azaspiro[3.3]hept-6-yl)methanone]
- IC50: 22.7 nM

SMILES: COCCN(C)C(=O)[C@H]1CCc2c(sc3ncnc(Nc4ccc5[nH]ncc5c4)c23)C1 [Example 13, (7S)-4-(1H-Indazol-5-ylamino)-N-(2-methoxyethyl)-N-methyl-5,6,7,8-tetrahydro[1]benzothieno[2,3-d]pyrimidine-7-carboxamide]
- IC50: 3.2 nM

SMILES: CN1CCN(C(=O)[C@H]2CCc3c(sc4ncnc(Nc5ccc6[nH]ncc6c5)c34)C2)CC1 [Example 14, [(7S)-4-(1H-Indazol-5-ylamino)-5,6,7,8-tetrahydro[I]benzothieno[2,3-d]pyrimidin-7-yl](4-methylpiperazin-1-yl)methanone]
- IC50: 5.5 nM
- Activity-Ratio MKNK1: 16.1

SMILES: CN1CCN(C(=O)[C@@H]2CCc3c(sc4ncnc(Nc5ccc6[nH]ncc6c5)c34)C2)CC1 [Example 15, [(7R)-4-(1H-Indazol-5-ylamino)-5,6,7,8-tetrahydro[1]benzothieno[2,3-d]pyrimidin-7-yl](4-methylpiperazin-1-yl)methanone]
- IC50: 88.5 nM

SMILES: COCCN(CCOC)C(=O)[C@H]1CCc2c(sc3ncnc(Nc4ccc5[nH]ncc5c4)c23)C1 [Example 16, (7S)-4-(1H-Indazol-5-ylamino)-N,N-bis(2-methoxyethyl)-5,6,7,8-tetrahydro[1]benzothieno[2,3-d]pyrimidine-7-carboxamide]
- IC50: 2.4 nM

SMILES: CC1(O)CN(C(=O)[C@H]2CCc3c(sc4ncnc(Nc5ccc6[nH]ncc6c5)c34)C2)C1 [Example 17, (3-Hydroxy-3-methylazetidin-1-yl)[(7S)-4-(1H-indazol-5-ylamino)-5,6,7,8-tetrahydro[1]benzothieno[2,3-d]pyrimidin-7-yl]methanone]
- IC50: 9.4 nM

SMILES: CN(CC(C)(C)O)C(=O)[C@H]1CCc2c(sc3ncnc(Nc4ccc5[nH]ncc5c4)c23)C1 [Example 18, (7S)—N-(2-Hydroxy-2-methylpropyl)-4-(1H-indazol-5-ylamino)-N-methyl-5,6,7,8-tetrahydro[1]benzothieno[2,3-d]pyrimidine-7-carboxamide]
- IC50: 3.9 nM

SMILES: CCN(CCO)C(=O)[C@H]1CCc2c(sc3ncnc(Nc4ccc5[nH]ncc5c4)c23)C1 [Example 19, (7S)—N-Ethyl-N-(2-hydroxyethyl)-4-(1H-indazol-5-ylamino)-5,6,7,8-tetrahydro[1]benzothieno[2,3-d]pyrimidine-7-carboxamide]
- IC50: 2.5 nM

SMILES: COc1cc2[nH]ncc2cc1Nc1ncnc2sc3c(c12)CC[C@H](C(=O)N(C)C)C3 [Example 20, (7S)-4-[(6-Methoxy-1H-indazol-5-yl)amino]-N,N-dimethyl-5,6,7,8-tetrahydro[1]benzothieno[2,3-d]pyrimidine-7-carboxamide]
- IC50: 1 nM

SMILES: COc1cc2[nH]ncc2cc1Nc1ncnc2sc3c(c12)CC[C@H](C(=O)N1CCC1)C3 [Example 21, Azetidin-1-yl{(7S)-4-[(6-methoxy-1H-indazol-5-yl)amino]-5,6,7,8-tetrahydro[1]benzothieno[2,3-d]pyrimidin-7-yl}methanone]
- IC50: 0.4 nM
- Activity-Ratio MKNK1: 53.1

SMILES: COc1cc2[nH]ncc2cc1Nc1ncnc2sc3c(c12)CC[C@@H](C(=O)N1CCC1)C3 [Example 22, Azetidin-1-yl{(7R)-4-[(6-methoxy-1H-indazol-5-yl)amino]-5,6,7,8-tetrahydro[1]benzothieno[2,3-d]pyrimidin-7-yl}methanone]
- IC50: 21.4 nM

SMILES: COc1cc2[nH]ncc2cc1Nc1ncnc2sc3c(c12)CC[C@H](C(=O)N1CCCC1)C3 [Example 23, {(7S)-4-[(6-Methoxy-1H-indazol-5-yl)amino]-5,6,7,8-tetrahydro[1]benzothieno[2,3-d]pyrimidin-7-yl}(pyrrolidin-1-yl)methanone]
- IC50: 0.5 nM

SMILES: CCN(C)C(=O)[C@H]1CCc2c(sc3ncnc(Nc4cc5cn[nH]c5cc4OC)c23)C1 [Example 24, (7S)—N-Ethyl-4-[(6-methoxy-1H-indazol-5-yl)amino]-N-methyl-5,6,7,8-tetrahydro[1]benzothieno[2,3-d]pyrimidine-7-carboxamide]
- IC50: 0.2 nM
- Activity-Ratio MKNK1: 39.1

SMILES: CCN(C)C(=O)[C@@H]1CCc2c(sc3ncnc(Nc4cc5cn[nH]c5cc4OC)c23)C1 [Example 25, (7R)—N-Ethyl-4-[(6-methoxy-1H-indazol-5-yl)amino]-N-methyl-5,6,7,8-tetrahydro[1]benzothieno[2,3-d]pyrimidine-7-carboxamide]
- IC50: 8.3 nM

SMILES: COc1cc2[nH]ncc2cc1Nc1ncnc2sc3c(c12)CC[C@H](C(=O)N(C)C(C)C)C3 [Example 26, (7S)-4-[(6-Methoxy-1H-indazol-5-yl)amino]-N-methyl-N-(propan-2-yl)-5,6,7,8-tetrahydro[1]benzothieno[2,3-d]pyrimidine-7-carboxamide]
- IC50: 0.2 nM
- Activity-Ratio MKNK1: 172.9

SMILES: COc1cc2[nH]ncc2cc1Nc1ncnc2sc3c(c12)CC[C@@H](C(=O)N(C)C(C)C)C3 [Example 27, (7R)-4-[(6-Methoxy-1H-indazol-5-yl)amino]-N-methyl-N-(propan-2-yl)-5,6,7,8-tetrahydro[1]benzothieno[2,3-d]pyrimidine-7-carboxamide]
- IC50: 38.9 nM

SMILES: COc1cc2[nH]ncc2cc1Nc1ncnc2sc3c(c12)CC[C@H](C(=O)N1CCOCC1)C3 [Example 28, {(7S)-4-[(6-Methoxy-1H-indazol-5-yl)amino]-5,6,7,8-tetrahydro[1]benzothieno[2,3-d]pyrimidin-7-yl}(morpholin-4-yl)methanone]
- IC50: 0.3 nM
- Activity-Ratio MKNK1: 26.1

SMILES: COc1cc2[nH]ncc2cc1Nc1ncnc2sc3c(c12)CC[C@@H](C(=O)N1CCOCC1)C3 [Example 29, {(7R)-4-[(6-Methoxy-1H-indazol-5-yl)amino]-5,6,7,8-tetrahydro[1]benzothieno[2,3-d]pyrimidin-7-yl}(morpholin-4-yl)methanone]
- IC50: 8.7 nM

SMILES: COc1cc2[nH]ncc2cc1Nc1ncnc2sc3c(c12)CC[C@H](C(=O)N1CCOC[C@@H]1C)C3 [Example 30, {(7S)-4-[(6-Methoxy-1H-indazol-5-yl)amino]-5,6,7,8-tetrahydro[1]benzothieno[2,3-d]pyrimidin-7-yl}[(3S)-3-methylmorpholin-4-yl]methanone]
- IC50: 0.3 nM

SMILES: COc1cc2[nH]ncc2cc1Nc1ncnc2sc3c(c12)CC[C@H](C(=O)N1CCOC[C@H]1C)C3 [Example 31, {(7S)-4-[(6-Methoxy-1H-indazol-5-yl)amino]-5,6,7,8-tetrahydro[1]benzothieno[2,3-d]pyrimidin-7-yl}[(3R)-3-methylmorpholin-4-yl]methanone]
- IC50: 0.8 nM

SMILES: COc1cc2[nH]ncc2cc1Nc1ncnc2sc3c(c12)CC[C@H](C(=O)N1CC2(COC2)C1)C3 [Example 32, {(7S)-4-[(6-Methoxy-1H-indazol-5-yl)amino]-5,6,7,8-tetrahydro[1]benzothieno[2,3-d]pyrimidin-7-yl}(2-oxa-6-azaspiro[3.3]hept-6-yl)methanone]
- IC50: 1 nM

SMILES: COc1cc2[nH]ncc2cc1Nc1ncnc2sc3c(c12)CC[C@H](C(=O)N1C[C@@H]2C[C@H]1CO2)C3 [Example 33, {(7S)-4-[(6-Methoxy-1H-indazol-5-yl)amino]-5,6,7,8-tetrahydro[1]benzothieno[2,3-d]pyrimidin-7-yl}[(1S,4S)-2-oxa-5-azabicyclo[2.2.1]hept-5-yl]methanone]
- IC50: 1.5 nM

SMILES: COc1cc2[nH]ncc2cc1Nc1ncnc2sc3c(c12)CC[C@H](C(=O)N1C[C@H]2C[C@@H]1CO2)C3 [Example 34, {(7S)-4-[(6-Methoxy-1H-indazol-5-yl)amino]-5,6,7,8-tetrahydro[1]benzothieno[2,3-d]pyrimidin-7-yl}[(1R,4R)-2-oxa-5-azabicyclo[2.2.1]hept-5-yl]methanone]
- IC50: 0.5 nM

SMILES: COc1cc2[nH]ncc2cc1Nc1ncnc2sc3c(c12)CC[C@H](C(=O)N1CC(C#N)C1)C3 [Example 35, 1-({(7S)-4-[(6-Methoxy-1H-indazol-5-yl)amino]-5,6,7,8-tetrahydro[1]benzothieno[2,3-d]pyrimidin-7-yl}carbonyl)azetidine-3-carbonitrile]
- IC50: 0.7 nM
